Results taken from ChEMBL document CHEMBL3991601, “The target landscape of clinical kinase drugs” (Science, 2017).
Active and inactive are the calls of the source. Rule as the data show it, for most assays here: actives have a measured Kd and inactives only a lower limit.

Key:
[1] = biological target: Cyclin-dependent kinase 5 (Homo sapiens, UniProt Q00535)
[2] = biological target: Casein kinase I isoform delta (Homo sapiens, UniProt P48730)
[3] = biological target: PAS domain-containing serine/threonine-protein kinase (Homo sapiens, UniProt Q96RG2)
[4] = biological target: T1, Mitogen-activated protein kinase 15 (Homo sapiens, UniProt Q8TD08)
T1 sequence (Q8TD08 whole entry): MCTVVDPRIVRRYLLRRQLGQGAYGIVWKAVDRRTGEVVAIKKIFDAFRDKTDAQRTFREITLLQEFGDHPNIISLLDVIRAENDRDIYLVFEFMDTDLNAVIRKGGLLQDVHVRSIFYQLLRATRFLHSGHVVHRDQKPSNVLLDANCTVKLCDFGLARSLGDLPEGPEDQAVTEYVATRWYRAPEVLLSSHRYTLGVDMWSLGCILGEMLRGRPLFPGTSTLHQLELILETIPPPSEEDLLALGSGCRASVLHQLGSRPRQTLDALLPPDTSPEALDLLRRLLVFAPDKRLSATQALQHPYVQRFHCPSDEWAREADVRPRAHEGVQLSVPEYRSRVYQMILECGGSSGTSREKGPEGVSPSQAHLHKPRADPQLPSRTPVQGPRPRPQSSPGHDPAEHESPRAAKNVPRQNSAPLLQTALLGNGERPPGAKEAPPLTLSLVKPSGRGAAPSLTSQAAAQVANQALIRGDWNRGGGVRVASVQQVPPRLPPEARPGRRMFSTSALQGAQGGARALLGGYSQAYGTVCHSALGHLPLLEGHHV

[5] = biological target: Ras-related protein Rab-6A (Homo sapiens, UniProt P20340)
[6] = biological target: RAC-alpha serine/threonine-protein kinase (Homo sapiens, UniProt P31749)
GTP-binding protein 4 = GTP-binding protein 4 (Homo sapiens, UniProt Q9BZE4)
[7] = biological target: T2, Adenine phosphoribosyltransferase (Homo sapiens, UniProt P07741)
T2 sequence (P07741 whole entry): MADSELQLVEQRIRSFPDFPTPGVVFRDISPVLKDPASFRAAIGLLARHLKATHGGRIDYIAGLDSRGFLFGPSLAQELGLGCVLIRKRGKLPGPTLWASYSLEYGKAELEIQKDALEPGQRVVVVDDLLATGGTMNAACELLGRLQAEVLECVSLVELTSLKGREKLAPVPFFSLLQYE

[8] = biological target: Cyclin-dependent kinase 2 (Homo sapiens, UniProt P24941)
[9] = biological target: T3, Serine/threonine-protein kinase PLK4 (Homo sapiens, UniProt O00444)
T3 sequence (O00444 whole entry): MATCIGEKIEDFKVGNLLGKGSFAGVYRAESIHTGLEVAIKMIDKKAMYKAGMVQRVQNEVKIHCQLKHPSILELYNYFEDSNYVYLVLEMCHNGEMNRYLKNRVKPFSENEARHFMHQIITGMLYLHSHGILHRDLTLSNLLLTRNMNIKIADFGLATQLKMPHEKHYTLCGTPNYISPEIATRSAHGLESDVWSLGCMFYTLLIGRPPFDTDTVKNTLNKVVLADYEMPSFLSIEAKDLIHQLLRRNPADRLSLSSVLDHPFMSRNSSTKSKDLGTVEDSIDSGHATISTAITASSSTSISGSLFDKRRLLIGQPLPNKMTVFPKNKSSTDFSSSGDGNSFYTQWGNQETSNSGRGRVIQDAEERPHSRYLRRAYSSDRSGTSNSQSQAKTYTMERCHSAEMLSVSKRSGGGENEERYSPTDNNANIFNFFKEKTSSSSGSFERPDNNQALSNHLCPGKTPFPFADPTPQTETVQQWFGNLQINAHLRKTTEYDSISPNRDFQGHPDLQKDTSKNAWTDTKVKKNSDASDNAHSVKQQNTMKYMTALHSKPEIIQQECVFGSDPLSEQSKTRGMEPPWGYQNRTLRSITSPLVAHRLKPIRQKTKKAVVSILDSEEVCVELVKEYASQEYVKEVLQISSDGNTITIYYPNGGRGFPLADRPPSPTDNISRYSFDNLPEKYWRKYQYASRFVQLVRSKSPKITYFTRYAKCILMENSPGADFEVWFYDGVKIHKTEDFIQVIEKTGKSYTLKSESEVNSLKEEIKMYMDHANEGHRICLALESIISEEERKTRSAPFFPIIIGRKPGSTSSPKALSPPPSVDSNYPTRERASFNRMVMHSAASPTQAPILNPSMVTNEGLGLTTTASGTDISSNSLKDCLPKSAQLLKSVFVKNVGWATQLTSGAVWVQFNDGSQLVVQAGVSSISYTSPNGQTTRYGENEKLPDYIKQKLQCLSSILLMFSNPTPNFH

[10] = biological target: GTP-binding nuclear protein Ran (Homo sapiens, UniProt P62826)
[11] = biological target: Tyrosine-protein kinase CSK (Homo sapiens, UniProt P41240)
[12] = biological target: Membrane-associated progesterone receptor component 1 (Homo sapiens, UniProt O00264)
LIM domain kinase 1 = LIM domain kinase 1 (Homo sapiens, UniProt P53667)
[13] = biological target: Glycogen synthase kinase-3 beta (Homo sapiens, UniProt P49841)
[14] = biological target: Mitogen-activated protein kinase kinase kinase kinase 1 (Homo sapiens, UniProt Q92918)
[15] = biological target: Citron Rho-interacting kinase (Homo sapiens, UniProt O14578)
[16] = biological target: Cyclin-dependent kinase 4 (Homo sapiens, UniProt P11802)
[17] = biological target: Calcium/calmodulin-dependent protein kinase type II subunit gamma (Homo sapiens, UniProt Q13555)
Activin receptor type-2B = Activin receptor type-2B (Homo sapiens, UniProt Q13705)
Also: in the data inactive means no Kd found up to 30 µM.

Chain of Ras-related protein Rab-6A (P20340 whole entry): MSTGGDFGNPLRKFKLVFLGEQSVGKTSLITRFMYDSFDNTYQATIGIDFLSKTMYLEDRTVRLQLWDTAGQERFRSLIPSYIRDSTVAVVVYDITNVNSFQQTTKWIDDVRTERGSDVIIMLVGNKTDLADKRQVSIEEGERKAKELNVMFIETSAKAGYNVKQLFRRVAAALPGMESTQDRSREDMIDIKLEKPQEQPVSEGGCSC
Chain of Cyclin-dependent kinase 4 (P11802 whole entry): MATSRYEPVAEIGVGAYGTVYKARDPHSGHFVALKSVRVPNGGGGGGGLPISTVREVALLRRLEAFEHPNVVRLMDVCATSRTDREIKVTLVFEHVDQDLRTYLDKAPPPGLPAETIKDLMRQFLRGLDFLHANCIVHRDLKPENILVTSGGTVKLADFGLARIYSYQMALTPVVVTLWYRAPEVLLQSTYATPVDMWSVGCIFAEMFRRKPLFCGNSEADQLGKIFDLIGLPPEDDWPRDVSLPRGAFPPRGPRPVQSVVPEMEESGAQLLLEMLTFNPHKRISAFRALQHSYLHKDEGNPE
Chain of PAS domain-containing serine/threonine-protein kinase (Q96RG2 whole entry, the tested form may be a part): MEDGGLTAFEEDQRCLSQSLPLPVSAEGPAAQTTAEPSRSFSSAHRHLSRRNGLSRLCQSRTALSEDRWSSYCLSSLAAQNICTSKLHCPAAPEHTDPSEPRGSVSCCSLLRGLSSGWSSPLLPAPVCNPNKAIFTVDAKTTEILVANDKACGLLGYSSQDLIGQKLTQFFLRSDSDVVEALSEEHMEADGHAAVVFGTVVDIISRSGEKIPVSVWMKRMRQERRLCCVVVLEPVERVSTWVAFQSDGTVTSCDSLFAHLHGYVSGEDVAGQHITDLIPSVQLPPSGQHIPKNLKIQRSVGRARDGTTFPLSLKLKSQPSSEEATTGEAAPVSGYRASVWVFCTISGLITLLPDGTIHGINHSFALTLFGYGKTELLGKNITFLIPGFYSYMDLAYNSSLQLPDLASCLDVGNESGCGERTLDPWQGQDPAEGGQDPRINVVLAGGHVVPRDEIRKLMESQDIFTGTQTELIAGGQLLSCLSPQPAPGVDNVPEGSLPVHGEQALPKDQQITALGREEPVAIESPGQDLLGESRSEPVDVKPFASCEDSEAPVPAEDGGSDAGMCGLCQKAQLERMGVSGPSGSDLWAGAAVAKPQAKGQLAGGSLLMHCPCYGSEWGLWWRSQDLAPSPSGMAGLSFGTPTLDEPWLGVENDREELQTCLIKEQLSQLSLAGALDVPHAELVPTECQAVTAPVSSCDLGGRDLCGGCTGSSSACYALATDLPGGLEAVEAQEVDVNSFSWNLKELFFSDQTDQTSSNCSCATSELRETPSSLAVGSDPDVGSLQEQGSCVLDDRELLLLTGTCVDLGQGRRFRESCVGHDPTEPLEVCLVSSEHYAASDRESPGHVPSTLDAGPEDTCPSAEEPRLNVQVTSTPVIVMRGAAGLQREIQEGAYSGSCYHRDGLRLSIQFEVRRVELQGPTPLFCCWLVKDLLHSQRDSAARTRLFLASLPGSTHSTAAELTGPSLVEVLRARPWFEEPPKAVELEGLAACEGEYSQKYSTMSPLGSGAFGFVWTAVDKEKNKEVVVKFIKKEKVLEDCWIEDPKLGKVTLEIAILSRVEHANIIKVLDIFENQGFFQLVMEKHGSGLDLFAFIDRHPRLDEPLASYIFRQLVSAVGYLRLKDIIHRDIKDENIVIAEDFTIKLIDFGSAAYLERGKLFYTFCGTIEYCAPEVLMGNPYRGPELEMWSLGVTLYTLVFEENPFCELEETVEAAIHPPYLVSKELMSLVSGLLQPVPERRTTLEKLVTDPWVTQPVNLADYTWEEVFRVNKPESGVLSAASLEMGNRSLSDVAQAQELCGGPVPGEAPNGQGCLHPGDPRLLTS
Chain of Calcium/calmodulin-dependent protein kinase type II subunit gamma (Q13555 whole entry): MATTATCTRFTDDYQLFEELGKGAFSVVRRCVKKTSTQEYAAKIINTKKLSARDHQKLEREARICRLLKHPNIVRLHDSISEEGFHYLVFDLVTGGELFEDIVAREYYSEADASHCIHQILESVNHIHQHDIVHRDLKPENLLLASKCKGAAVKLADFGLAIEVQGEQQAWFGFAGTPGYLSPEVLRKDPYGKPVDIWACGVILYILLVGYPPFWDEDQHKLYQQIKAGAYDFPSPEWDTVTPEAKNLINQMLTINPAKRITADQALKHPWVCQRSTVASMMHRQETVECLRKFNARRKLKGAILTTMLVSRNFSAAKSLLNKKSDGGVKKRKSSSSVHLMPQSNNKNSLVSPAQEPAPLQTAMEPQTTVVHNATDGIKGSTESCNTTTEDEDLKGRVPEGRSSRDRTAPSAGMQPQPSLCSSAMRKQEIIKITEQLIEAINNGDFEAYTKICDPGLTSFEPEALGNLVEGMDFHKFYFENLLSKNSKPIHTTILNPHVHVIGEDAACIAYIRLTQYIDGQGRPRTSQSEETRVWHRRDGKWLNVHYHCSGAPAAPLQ
Chain of Casein kinase I isoform delta (P48730 whole entry, the tested form may be a part, canonical isoform): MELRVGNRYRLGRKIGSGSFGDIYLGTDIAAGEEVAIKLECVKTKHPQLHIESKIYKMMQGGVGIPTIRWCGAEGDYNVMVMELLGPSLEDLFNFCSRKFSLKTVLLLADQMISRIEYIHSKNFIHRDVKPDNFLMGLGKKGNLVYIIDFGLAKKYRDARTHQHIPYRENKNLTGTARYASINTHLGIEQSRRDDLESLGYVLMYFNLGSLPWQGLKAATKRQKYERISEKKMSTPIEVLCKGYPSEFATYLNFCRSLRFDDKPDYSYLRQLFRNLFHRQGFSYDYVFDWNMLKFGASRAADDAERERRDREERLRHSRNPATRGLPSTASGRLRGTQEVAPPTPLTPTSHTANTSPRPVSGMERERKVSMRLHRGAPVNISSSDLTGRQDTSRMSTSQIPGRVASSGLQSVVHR
Chain of RAC-alpha serine/threonine-protein kinase (P31749 whole entry): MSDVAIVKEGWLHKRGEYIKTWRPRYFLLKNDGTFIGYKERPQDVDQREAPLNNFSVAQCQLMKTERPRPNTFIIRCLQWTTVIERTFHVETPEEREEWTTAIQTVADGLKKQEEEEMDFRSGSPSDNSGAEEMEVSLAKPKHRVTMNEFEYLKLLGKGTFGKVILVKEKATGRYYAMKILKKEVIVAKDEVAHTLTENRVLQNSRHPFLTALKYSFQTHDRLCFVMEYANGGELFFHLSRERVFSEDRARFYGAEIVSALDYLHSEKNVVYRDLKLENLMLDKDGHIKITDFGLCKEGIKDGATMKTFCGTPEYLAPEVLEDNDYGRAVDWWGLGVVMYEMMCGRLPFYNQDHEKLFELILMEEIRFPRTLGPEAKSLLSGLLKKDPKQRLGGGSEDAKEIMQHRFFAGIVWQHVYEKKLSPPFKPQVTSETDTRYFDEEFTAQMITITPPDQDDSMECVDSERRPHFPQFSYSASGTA
Chain of Activin receptor type-2B (Q13705 whole entry): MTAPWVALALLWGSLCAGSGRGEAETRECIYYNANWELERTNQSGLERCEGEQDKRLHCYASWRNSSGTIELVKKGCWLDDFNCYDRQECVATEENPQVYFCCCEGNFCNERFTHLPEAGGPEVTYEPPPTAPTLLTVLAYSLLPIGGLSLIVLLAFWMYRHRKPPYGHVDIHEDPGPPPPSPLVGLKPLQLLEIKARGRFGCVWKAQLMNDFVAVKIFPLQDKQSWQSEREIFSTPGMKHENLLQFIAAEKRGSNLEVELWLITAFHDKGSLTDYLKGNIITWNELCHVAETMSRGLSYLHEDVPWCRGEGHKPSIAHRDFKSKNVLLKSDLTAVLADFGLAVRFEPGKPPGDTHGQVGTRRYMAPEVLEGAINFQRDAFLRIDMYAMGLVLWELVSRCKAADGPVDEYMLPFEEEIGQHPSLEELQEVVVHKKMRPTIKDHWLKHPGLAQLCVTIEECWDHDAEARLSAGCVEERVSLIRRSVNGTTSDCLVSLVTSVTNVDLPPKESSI
Chain of Glycogen synthase kinase-3 beta (P49841 whole entry): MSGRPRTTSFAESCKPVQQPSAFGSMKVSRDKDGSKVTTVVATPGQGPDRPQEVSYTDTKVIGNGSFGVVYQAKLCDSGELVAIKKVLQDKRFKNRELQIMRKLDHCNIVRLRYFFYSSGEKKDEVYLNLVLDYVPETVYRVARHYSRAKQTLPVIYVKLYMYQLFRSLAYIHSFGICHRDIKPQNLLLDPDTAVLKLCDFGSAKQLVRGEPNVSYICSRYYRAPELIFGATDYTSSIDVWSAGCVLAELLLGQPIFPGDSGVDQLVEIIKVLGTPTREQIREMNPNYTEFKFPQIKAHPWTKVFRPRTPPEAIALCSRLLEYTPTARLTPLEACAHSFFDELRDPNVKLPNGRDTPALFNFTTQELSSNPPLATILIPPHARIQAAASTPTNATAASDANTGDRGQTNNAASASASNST
Chain of Membrane-associated progesterone receptor component 1 (O00264 whole entry, the tested form may be a part): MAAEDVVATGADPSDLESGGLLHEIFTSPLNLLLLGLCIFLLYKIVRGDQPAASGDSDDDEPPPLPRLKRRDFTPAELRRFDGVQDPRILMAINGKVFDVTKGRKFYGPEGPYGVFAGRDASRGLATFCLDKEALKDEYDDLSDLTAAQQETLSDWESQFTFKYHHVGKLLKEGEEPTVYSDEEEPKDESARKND
Chain of Cyclin-dependent kinase 5 (Q00535 whole entry, canonical isoform): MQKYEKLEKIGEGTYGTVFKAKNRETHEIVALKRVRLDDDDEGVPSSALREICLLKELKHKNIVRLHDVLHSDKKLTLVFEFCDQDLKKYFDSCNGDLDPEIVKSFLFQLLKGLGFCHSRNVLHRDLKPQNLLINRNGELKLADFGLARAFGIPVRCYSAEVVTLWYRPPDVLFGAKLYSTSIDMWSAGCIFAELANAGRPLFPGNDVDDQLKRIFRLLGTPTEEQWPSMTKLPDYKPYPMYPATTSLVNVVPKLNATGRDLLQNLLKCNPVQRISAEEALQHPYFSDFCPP

Kd [1] | Kd [2] | Kd [3] | Kd [5] | Kd [6] | Kd (GTP-binding protein 4) | Kd [7] | Kd [8] | Kd [9] | Kd [10] | Kd [11] | Kd [12] | Kd (LIM domain kinase 1) | Kd [13] | Kd [14] | Kd [15] | Kd [16] | Kd [17] | Kd (Activin receptor type-2B) | SMILES | Kd [4]
> 30 µM (inactive) | > 30 µM (inactive) | > 30 µM (inactive) | > 30 µM (inactive) | > 30 µM (inactive) | > 30 µM (inactive) | > 30 µM (inactive) | > 30 µM (inactive) | > 30 µM (inactive) | > 30 µM (inactive) | > 30 µM (inactive) | > 30 µM (inactive) | > 30 µM (inactive) | > 30 µM (inactive) | > 30 µM (inactive) | > 30 µM (inactive) | > 30 µM (inactive) | > 30 µM (inactive) | > 30 µM (inactive) | COc1cc2c(Nc3ccc(Cl)c(Cl)c3F)ncnc2cc1OC[C@@H]1C[C@@H]2CN(C)C[C@@H]2C1 [TESEVATINIB] | > 30 µM (inactive)
> 30 µM (inactive) | > 30 µM (inactive) | > 30 µM (inactive) | > 30 µM (inactive) | > 30 µM (inactive) | > 30 µM (inactive) | > 30 µM (inactive) | > 30 µM (inactive) | > 30 µM (inactive) | > 30 µM (inactive) | > 30 µM (inactive) | > 30 µM (inactive) | > 30 µM (inactive) | > 30 µM (inactive) | > 30 µM (inactive) | > 30 µM (inactive) | > 30 µM (inactive) | > 30 µM (inactive) | > 30 µM (inactive) | O=C(Cc1ccc(-c2ccc(OCCN3CCOCC3)cc2)cn1)NCc1ccccc1 [TIRBANIBULIN] | > 30 µM (inactive)
> 30 µM (inactive) | > 30 µM (inactive) | > 30 µM (inactive) | > 30 µM (inactive) | > 30 µM (inactive) | > 30 µM (inactive) | > 30 µM (inactive) | > 30 µM (inactive) | > 30 µM (inactive) | > 30 µM (inactive) | > 30 µM (inactive) | > 30 µM (inactive) | > 30 µM (inactive) | > 30 µM (inactive) | > 30 µM (inactive) | > 30 µM (inactive) | > 30 µM (inactive) | > 30 µM (inactive) | > 30 µM (inactive) | O=C1NC(=O)[C@@H](c2cn3c4c(cccc24)CCC3)[C@@H]1c1c[nH]c2ccccc12 [TIVANTINIB] | > 30 µM (inactive)
> 30 µM (inactive) | > 30 µM (inactive) | > 30 µM (inactive) | > 30 µM (inactive) | > 30 µM (inactive) | > 30 µM (inactive) | > 30 µM (inactive) | > 30 µM (inactive) | > 30 µM (inactive) | > 30 µM (inactive) | > 30 µM (inactive) | > 30 µM (inactive) | 1.02 µM (active) | > 30 µM (inactive) | > 30 µM (inactive) | > 30 µM (inactive) | > 30 µM (inactive) | > 30 µM (inactive) | > 30 µM (inactive) | C[C@@H](NC(=O)c1ncnc(N)c1Cl)c1ncc(C(=O)Nc2cc(C(F)(F)F)c(Cl)cn2)s1 [TOVORAFENIB] | > 30 µM (inactive)
